≈ marks a conversion by molar mass, not a printed value. Like-named read-outs stand apart in the source and are kept apart here.
Tests used:
[1] = tested on: E. coli ATCC 25922; assay: Broth microdilution MIC/MBC, glycosides with or without polymyxins; assay type: cell-based, Escherichia coli; settings: strain A
[2] = tested on: E. coli NCTC 13846; assay: as above; assay type: cell-based, Escherichia coli; settings: agent alone, no adjuvant (polymyxin conc. 0); strain B
[3] = tested on: K. pneumoniae CQ4921; assay: as above; assay type: cell-based, Klebsiella pneumoniae; settings: strain C
[4] = tested on: E. cloacae CQ1941; assay: as above; assay type: cell-based; settings: strain D
[5] = tested on: K. pneumoniae CQ1942; assay: Broth microdilution MIC, glycosides with or without polymyxins; assay type: cell-based, Klebsiella pneumoniae; settings: strain E
[6] = tested on: K. pneumoniae CQ1947; assay: as above; assay type: cell-based, Klebsiella pneumoniae; settings: strain F
[7] = tested on: A. baumannii CQ4322; assay: Broth microdilution MIC/MBC, glycosides with or without polymyxins; assay type: cell-based, Acinetobacter baumannii; settings: strain G
[8] = tested on: P. aeruginosa CQ4924; assay: Broth microdilution MIC, glycosides with or without polymyxins; assay type: cell-based, Pseudomonas aeruginosa; settings: strain H; for RIS (susceptibility category) / MIC (antibiotic susceptibility profile): antibiotic alone
[9] = tested on: Caco-2 cells; assay: Resazurin cell viability assay (cytotoxicity); assay type: cell-based, human; settings: tested alone (no polymyxin adjuvant); 72 h
Experimental: (§1) Cytotoxicity of each compound alone or in combination with different polymyxin concentrations was evaluated through the resazurin cell viability assay[49] in human embryonic HEK-293T cells, as well as in human colon adenocarcinoma Caco-2 cells, after a 72-h long incubation period.
(§2) HEK-293T and Caco-2 cells were grown in RPMI 1640 medium (VWR) supplemented with 10% FBS (Biowest), 1% PenStrep (Sigma Aldrich), and 1% glutamine (Biowest) in a humidified incubator at 37 °C with a 5% CO2 atmosphere. Twice a week, the medium was aspirated, the cells were washed with DPBS (VWR), trypsinized with trypsin–EDTA solution (Biowest), and resuspended in fresh culture medium. The dose-dependent effects of each glycoside or glycoside-polymyxin combination were evaluated by the resazurin cell viability assay. Polymyxins (colistin sulfate and PMB sulfate for microbiological assays, European Pharmacopoeia Reference Standards, Sigma-Aldrich) were firstly dissolved in sterilized Mili-Q water to a stock concentration of 1 mg/mL, while glycosides were dissolved in DMSO to a stock concentration of 30 mM. 1.5 × 10^4 cells/well in 96.5 µL of medium were seeded onto 96-well plates and incubated at 37 °C for 24 h. For each compound, ten stock dilutions (with concentrations from 750 to 75 µM) were prepared in fresh medium immediately prior to incubation. 16 µL of each dilution were added to each well so that the final glycoside concentrations ranged from 100 to 10 µM in each row in a final assay volume of 120 µL. In addition, the previously prepared polymyxin stock solutions were diluted in fresh medium, affording new stocks of 8, 4, and 2 µg/mL. The same volume (7.5 µL/well) of PMB or colistin was then added to each row to achieve a final polymyxin concentration of 0.5, 0.25, and 0.125 µg/mL, respectively, regardless of the glycoside concentration. In assays without polymyxin, the same volume (7.5 µL/well) of medium was added. In all assays, the maximum DMSO concentration was 0.33%. After a 72-h incubation at 37 °C, 12 µL of a 0.15 mg/mL resazurin (Sigma-Aldrich) in sterilized Mili-Q water were added to each well, and the plates were left incubating for another 4 h at 37 °C. Resorufin was measured at 570/600 nm, and the percentage of resazurin reduction, corresponding to the cell viability percentage, was calculated according to Eq. (1)[60]. IC50 values were obtained by best fitting the dose-dependent inhibition curves using the Prism 9® software. The results were expressed as the mean ± SD of three independent replicates, with only data from analysis with R^2 > 0.90 being considered.1 %Cellviability=Abssample-Absmediumcontrol/Abscellcontrol-Absmediumcontrol×100

[10] = tested on: HEK-293T cells; assay: Resazurin cell viability assay (cytotoxicity); assay type: cell-based, human; settings: tested alone (no polymyxin adjuvant); 72 h
Experimental: as §1, §2

[11] = tested on: HEK-293 cells; parameters: method as in PMID 30532748; settings: polymyxin alone; cited from earlier work
[12] = agent alone, no adjuvant (polymyxin conc. 0)
[13] = Escherichia coli, ATCC25922, antibiotic alone, read-out: MIC (antibiotic susceptibility profile)
[14] = Klebsiella pneumoniae, CQ4921, antibiotic alone, read-out: MIC (antibiotic susceptibility profile)
[15] = Enterobacter cloacae, CQ1941, antibiotic alone, read-out: MIC (antibiotic susceptibility profile)
[16] = Klebsiella pneumoniae, CQ1942, antibiotic alone, read-out: MIC (antibiotic susceptibility profile)
[17] = Klebsiella pneumoniae, CQ1947, antibiotic alone, read-out: MIC (antibiotic susceptibility profile)

For polymyxin B [PMB, reference compound], the MIC [1, 12] was 0.5 µg/mL, the MIC [2] was 4 µg/mL and the MIC [3, 12] was 0.5 µg/mL. It also gave an MIC [4, 12] of 0.5 µg/mL, an MIC [5, 12] of 0.5 µg/mL and an MIC [6, 12] of 0.5 µg/mL. The MIC [7, 12] was 0.5 µg/mL, the MIC [8, 12] was 1 µg/mL and the IC50 [9] was > 115 µg/mL. The IC50 [10] was > 115 µg/mL and the IC50 [11] was > 500 µg/mL.

For `CO/N=C(\C(=O)N[C@@H]1C(=O)N2C(C(=O)O)=C(COC(C)=O)CS[C@H]12)c1csc(N)n1` [Cefotaxime, reference compound], the MIC [1, 13] was 0.06 µg/mL (≈ 0.132 µM), the MIC [3, 14] was 2 µg/mL (≈ 4.39 µM) and the “RIS (susceptibility category)” value ([3]; antibiotic alone) was “I/R”. The MIC [4, 15] was ≥ 128 µg/mL, the MIC [5, 16] was ≥ 128 µg/mL and the MIC [6, 17] was ≥ 128 µg/mL. The “RIS (susceptibility category)” value ([7]; antibiotic alone) was “ERP” and the “RIS (susceptibility category)” value [8] was “ERP”.

`C[C@@H](O)[C@H]1C(=O)N2C(C(=O)O)=C(S[C@@H]3CN[C@H](C(=O)N(C)C)C3)[C@H](C)[C@H]12` [Meropenem, reference compound] showed an MIC [1, 13] of 0.016 to 0.03 µg/mL (≈ 0.0417 to 0.0782 µM), an MIC [3, 14] of 4 µg/mL (≈ 10.4 µM) and an MIC [4, 15] of 32 to 64 µg/mL (≈ 83.4 to 167 µM). For the same compound, the MIC [5, 16] was ≥ 128 µg/mL, the MIC [6, 17] was 16 to 32 µg/mL (≈ 41.7 to 83.4 µM) and the “MIC (antibiotic susceptibility profile)” value [8] was 16 µg/mL (≈ 41.7 µM).

In the case of `CO/N=C(\C(=O)N[C@@H]1C(=O)N2C(C(=O)[O-])=C(C[N+]3(C)CCCC3)CS[C@H]12)c1csc(N)n1` [Cefepime, reference compound], the MIC [1, 13] is reported as 0.03 to 0.06 µg/mL (≈ 0.0624 to 0.125 µM), the MIC [4, 15] is reported as > 64 µg/mL and the MIC [5, 16] is reported as > 64 µg/mL. The MIC [6, 17] was 32 µg/mL (≈ 66.6 µM).

In the case of `C[C@H]1[C@H](NC(=O)/C(=N\OC(C)(C)C(=O)O)c2csc(N)n2)C(=O)N1S(=O)(=O)O` [Aztreonam, reference compound], the MIC [4, 15] is reported as > 64 µg/mL, the MIC [5, 16] is reported as > 64 µg/mL and the MIC [6, 17] is reported as 0.25 µg/mL (≈ 0.574 µM). The “RIS (susceptibility category)” value ([7]; antibiotic alone) was “ERP”.

`C[C@@H](O)[C@H]1C(=O)N2C(C(=O)O)=C(S[C@@H]3CN[C@H](C(=O)Nc4cccc(C(=O)O)c4)C3)[C@H](C)[C@H]12` [Ertapenem, reference compound] showed an MIC [1, 13] of 0.008 µg/mL (≈ 0.0168 µM), an MIC [3, 14] of 8 to 64 µg/mL (≈ 16.8 to 135 µM) and an MIC [4, 15] of 64 µg/mL (≈ 135 µM). For the same compound, the MIC [5, 16] was ≥ 128 µg/mL, the MIC [6, 17] was 16 to 64 µg/mL (≈ 33.6 to 135 µM) and the “RIS (susceptibility category)” value ([7]; antibiotic alone) was “ERP”. For the same compound, the “RIS (susceptibility category)” value [8] was “ERP”.

In the case of `NC[C@H]1O[C@H](O[C@H]2[C@H](O)[C@@H](O[C@H]3O[C@H](CO)[C@@H](O)[C@H](N)[C@H]3O)[C@H](N)C[C@@H]2N)[C@H](N)C[C@@H]1O` [Tobramycin, reference compound], the MIC [1, 13] is reported as 0.5 µg/mL (≈ 1.07 µM), the MIC [3, 14] is reported as 0.25 µg/mL (≈ 0.535 µM) and the MIC [4, 15] is reported as ≥ 128 µg/mL. For the same compound, the MIC [5, 16] was 16 µg/mL (≈ 34.2 µM), the MIC [6, 17] was ≥ 128 µg/mL and the “MIC (antibiotic susceptibility profile)” value ([7]; antibiotic alone) was 32 µg/mL (≈ 68.4 µM). For the same compound, the “MIC (antibiotic susceptibility profile)” value [8] was 1 µg/mL (≈ 2.14 µM).

Reference: paper PMC10817917, “Alkyl deoxyglycoside-polymyxin combinations against critical priority carbapenem-resistant gram-negative bacteria” (Scientific Reports, 2024)
